Reference: ChEMBL document CHEMBL1153613, “Synthesis and reactivity of novel gamma-phosphate modified ATP analogues” (Bioorg Med Chem Lett, 2009)
The source made the active and inactive calls. The calls are words filed in the database; no cut-off is given here.

Target: Cyclin-dependent kinase 2 (Homo sapiens) (UniProt P24941)
Experiment: Effect on wild type recombinant CDK2/cyclin E1 assessed as p27kip1 phosphorylation after 1 hr by immunoblot analysis

| Activity | Structure (SMILES) |
| --- | --- |
| Active | [N-]=[N+]=NCCOP(=O)(O)OP(=O)(O)OP(=O)(O)OC[C@H]1O[C@@H](n2cnc3c(N)ncnc32)[C@H](O)[C@@H]1O |
| Active | C#CCCCNP(=O)(O)OP(=O)(O)OP(=O)(O)OC[C@H]1O[C@@H](n2cnc3c(N)ncnc32)[C@H](O)[C@@H]1O |
| Active | [N-]=[N+]=NCCOCCOCCOCCNP(=O)(O)OP(=O)(O)OP(=O)(O)OC[C@H]1O[C@@H](n2cnc3c(N)ncnc32)[C@H](O)[C@@H]1O |
| Active | C#CCNP(=O)(O)OP(=O)(O)OP(=O)(O)OC[C@H]1O[C@@H](n2cnc3c(N)ncnc32)[C@H](O)[C@@H]1O |
| Active | [N-]=[N+]=Nc1ccc(NP(=O)(O)OP(=O)(O)OP(=O)(O)OC[C@H]2O[C@@H](n3cnc4c(N)ncnc43)[C@H](O)[C@@H]2O)cc1 |
| Active | C#CCCNP(=O)(O)OP(=O)(O)OP(=O)(O)OC[C@H]1O[C@@H](n2cnc3c(N)ncnc32)[C@H](O)[C@@H]1O |
| Active | C=CCNP(=O)(O)OP(=O)(O)OP(=O)(O)OC[C@H]1O[C@@H](n2cnc3c(N)ncnc32)[C@H](O)[C@@H]1O |
| Active | C#CCCCOP(=O)(O)OP(=O)(O)OP(=O)(O)OC[C@H]1O[C@@H](n2cnc3c(N)ncnc32)[C@H](O)[C@@H]1O |
| Active | [N-]=[N+]=NCCCCCCNP(=O)(O)OP(=O)(O)OP(=O)(O)OC[C@H]1O[C@@H](n2cnc3c(N)ncnc32)[C@H](O)[C@@H]1O |
